Among the data in ChEMBL document CHEMBL1129201, “Synthesis and biological activity of 4-azido- and 4-trifluoracetamido-3-chloro-3-deamino-4-deoxydaunorubicin” (Bioorg Med Chem Lett, 1996) are IC50 and RF values, retold here.

In one experiment the test system is KB. Nature of the experiment: In vitro cytotoxicity using human epidermoid carcinoma (KB-A1) cells. It counts as functional, cell-based.
A short description of experiment [1]: Resistant Factor against MDR cell lines. Value expressed as ratio of IC50 on the resistant cell and on the corresponding sensitive cells. The experiment is classed as functional.
A further experiment relates to L1210. Nature of the experiment: In vitro cytotoxicity using murine leukemia L1210 cells from american type culture collection. The experiment is classed as functional, cell-based. To be noted: Mus musculus.
In a further experiment the test system is KB 3-1. In words: In vitro cytotoxicity using human epidermoid carcinoma (KB-3-1) cells. It counts as functional, cell-based.

As a reminder, the IC50 is the concentration that gives 50% inhibition. Read a high IC50 as lower potency.

Regarding `COc1cccc2c1C(=O)c1c(O)c3c(c(O)c1C2=O)C[C@@](O)(C(C)=O)C[C@@H]3OC1CC(Cl)C(N=[N+]=[N-])C(C)O1` (stereo partly specified), the IC50 was 2760 nM with KB, 1370 nM in the experiment with L1210 and 1610 nM in the experiment with KB 3-1. In experiment [1], the RF is listed as 1.7.
With `COc1cccc2c1C(=O)c1c(O)c3c(c(O)c1C2=O)C[C@@](O)(C(C)=O)C[C@@H]3OC1CC(Cl)C(NC(=O)C(F)(F)F)C(C)O1` (stereo partly specified), the figures for the 50% inhibitory concentration (IC50) with KB, with L1210 and with KB 3-1 were 3790 nM, 500 nM and 550 nM, respectively. Besides, in experiment [1], the RF is 6.9.
For the compound `COc1cccc2c1C(=O)c1c(O)c3c(c(O)c1C2=O)C[C@@](O)(C(C)=O)C[C@@H]3O[C@H]1C[C@H](N)[C@H](O)[C@H](C)O1` [DAUNORUBICIN], the IC50 in the experiment on KB stood at 2070 nM; with L1210, 33 nM; in the experiment with KB 3-1 it was 7 nM. The RF in experiment [1] is recorded as 295.7.
In the same order, the values of `COc1cccc2c1C(=O)c1c(O)c3c(c(O)c1C2=O)C[C@@](O)(C(=O)CO)C[C@@H]3O[C@H]1C[C@H](N)[C@H](O)[C@H](C)O1` [DOXORUBICIN] are 7010 nM, 33 nM, 21 nM and 333.8.
